Test results reported in paper PMC7162859 (Scientific Reports, 2020).

What was measured:
Bcrp = test system: Bcrp; parameters: method as in PMID 15930306; conditions: read-out: EC50 (Bcrp inhibition); cited from earlier work
orthotopic GBM1A tumors [1] = experiment: Pharmacodynamics: monopolar spindle formation in orthotopic GBM1A tumors; assay type: in vivo, NSG mice; conditions: single ip dose 10 mg/kg each drug; 8 hours
Experimental: Female NSG mice were intracerebrally injected with 500,000 GBM1A cells at coordinates X = 1.5 mm, Y = 1.5 mm and Z = 2.5 mm relative to the bregma, and tumor growth was monitored by bioluminescence imaging. After 4 weeks (tumor size of about 2 × 10^9 photons/sec), animals were randomized to receive single ip dose of microemulsion vehicle, 10 mg/kg elacridar, 10 mg/kg ispinesib, or a combination of 10 mg/kg ispinesib and 10 mg/kg elacridar (n = 8–10). At 8 hours following treatment, mice were perfused and whole brains were isolated. The samples were processed for immunofluorescence by staining for tubulin with an alpha-tubulin antibody (Cell signaling, Cat#2125) and counter staining with DAPI for visualizing nuclei. Images were scanned and counted for cells with monopolar spindles.

orthotopic GBM1A tumors [2] = assay type: in vivo; conditions: 10 mg/kg ip each drug once every 4 days for 28 days
Experimental: Female NSG mice were intracranially implanted with 500,000 luciferase expressing GBM1A cells (transduced with lentiviral particles expressing GFP-Luciferase). After 7 days, animals were randomized into four groups and ip administered with microemulsion vehicle, 10 mg/kg elacridar, 10 mg/kg ispinesib, or a combination of 10 mg/kg ispinesib and 10 mg/kg elacridar, once every 4 days for 28 days (n = 10). The dosing schedule of once every 4 days was based on our previously publication with ispinesib. Tumor growth was monitored by bioluminescence imaging and animals were followed for survival.
The progression of tumor growth was monitored by bioluminescence imaging (BLI) using an IVIS system. Mice that underwent stereotactic injection with GFP-luciferase expressing GBM1A cells were imaged twice a week. Ten minutes prior to imaging, mice were intraperitoneally injected with d-luciferin at 75 mg/kg body weight (3 mL/kg injection volume). Animals were immobilized using 1.5% − 3.0% isoflurane provided by nose cones within the imager and were kept warm using a heated stage set at 37 °C during the imaging procedure. Following imaging for about 5 minutes, animals were removed from the IVIS chamber and monitored until they fully recovered from anesthesia.

[3] = parameters: method as in PMID 23334925; conditions: following ip dosing; cited from earlier work
P-gp = conditions: read-out: EC50 (P-gp inhibition); cited from earlier work

COc1cc2c(cc1OC)CN(CCc1ccc(NC(=O)c3cccc4c(=O)c5cccc(OC)c5[nH]c34)cc1)CC2 [Elacridar, N-[4-[2-(6,7-dimethoxy-3,4-dihydro-1H-isoquinolin-2-yl)ethyl]phenyl]-5-methoxy-9-oxo-10H-acridine-4-carboxamide]
EC50 (Bcrp): ~300 nM
monopolar spindles in tumor core (tubulin/DNA staining) (orthotopic GBM1A tumors [1]): normal distribution of DNA
tumor doubling time (bioluminescence, single exponential fit) (orthotopic GBM1A tumors [2]; days 7–37): 6.2 days
median survival (orthotopic GBM1A tumors [2]; vehicle 61 days): 62 days
half-life [3]: 3.2 h
